pIC50, pKi: −log10 of the molar value.
Key:
B1 bradykinin receptor [1] = target: T1, B1 bradykinin receptor (Homo sapiens, UniProt P46663); assay: Antagonist activity at human bradykinin B1 receptor in IL1-beta stimulated IMR90 cells by FLIPR assay; format: functional, cell-based, IMR-90
T1 sequence (P46663 whole entry): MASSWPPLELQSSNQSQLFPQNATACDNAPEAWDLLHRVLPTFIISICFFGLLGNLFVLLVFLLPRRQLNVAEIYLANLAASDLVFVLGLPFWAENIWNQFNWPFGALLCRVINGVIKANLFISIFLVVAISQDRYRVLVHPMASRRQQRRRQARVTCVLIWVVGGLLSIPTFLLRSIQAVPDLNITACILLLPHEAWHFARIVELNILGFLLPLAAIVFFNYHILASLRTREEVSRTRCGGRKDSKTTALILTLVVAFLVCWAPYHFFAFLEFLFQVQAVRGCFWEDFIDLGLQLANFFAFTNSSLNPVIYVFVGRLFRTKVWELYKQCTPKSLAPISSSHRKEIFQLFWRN

B1 bradykinin receptor [2] = target: T1, B1 bradykinin receptor; assay: Displacement of [3H]DAKA from human bradykinin B1 receptor in IL1-beta stimulated IMR90 cells; format: cell-based, IMR-90

| Structure (SMILES) | pIC50 (B1 bradykinin receptor [1]) | pKi (B1 bradykinin receptor [2]) |
| --- | --- | --- |
| Cn1nc(NC(=O)c2ccccc2Cl)c(Br)c1C(=O)NCCC1CCN(c2ccncc2)CC1 | 6.19 | – |
| O=C(Nc1c(Br)c(C(=O)NCCC2CCN(c3ccncc3)CC2)nn1-c1ccccn1)c1ccccc1Cl | 7.92 | – |
| O=C(Nc1ccccc1)c1cc(NC(=O)c2ccccc2Cl)[nH]n1 | < 5.00 | – |
| Cc1c(C(=O)Nc2ccccc2)n[nH]c1NC(=O)c1ccccc1Cl | 5.70 | – |
| NC(=O)[C@@H](NC(=O)c1n[nH]c(NC(=O)c2ccccc2Cl)c1Br)c1ccccc1 | 5.77 | – |
| O=C(Nc1[nH]nc(C(=O)NCCC2CCN(c3ccncc3)CC2)c1F)c1ccccc1Cl | 7.64 | – |
| Cc1c(C(=O)NCCC2CCN(c3ccncc3)CC2)n[nH]c1NC(=O)c1ccccc1Cl | 8.03 | – |
| CC(=O)Nc1[nH]nc(C(=O)NC2N=C(c3ccccc3)c3ccccc3NC2=O)c1Br (configuration not stated) | < 5.00 | – |
| COC(=O)[C@@H](NC(=O)c1n[nH]c(NC(=O)c2ccccc2Cl)c1Br)c1ccccc1 | 6.54 | 7.14 |
| Cn1nc(C(=O)NCCC2CCN(c3ccncc3)CC2)c(Br)c1NC(=O)c1ccccc1Cl | 7.36 | – |
| O=C(Nc1[nH]nc(C(=O)NCCc2ccncc2)c1Br)c1ccccc1Cl | 6.31 | 6.92 |
| Nc1cccc(N2CCC(CNC(=O)c3n[nH]c(NC(=O)c4ccccc4Cl)c3Br)CC2)n1 | 7.89 | – |
| COc1ccc(-n2nc(C(=O)NCCC3CCN(c4ccncc4)CC3)c(Br)c2NC(=O)c2ccccc2Cl)cc1 | 5.92 | – |
| CN1CCC(N2CCC(CCNC(=O)c3nn(-c4ccccc4)c(NC(=O)c4ccccc4Cl)c3Br)CC2)CC1 | 6.49 | – |
| CN(C)CCn1nc(C(=O)NCCC2CCN(c3ccncc3)CC2)c(Br)c1NC(=O)c1ccccc1Cl | 5.80 | – |
| O=C(Nc1c(Br)c(C(=O)N[C@@H]2CCCCNC2=O)nn1-c1ccccc1)c1ccccc1Cl | < 5.00 | – |
| CC(C)(C)c1ccc(-c2n[nH]c(NC(=O)c3ccccc3Cl)c2Br)cc1 | 5.49 | – |
| CN1CCC(CCNC(=O)c2n[nH]c(NC(=O)c3ccccc3Cl)c2Br)CC1 | 7.07 | – |
| CC[C@@H](NC(=O)c1n[nH]c(NC(=O)c2ccccc2Cl)c1Br)C(=O)N(C)C | 7.09 | – |
| O=C(Nc1[nH]nc(C(=O)N[C@@H]2CCCCNC2=O)c1Br)c1ccccc1Cl | 6.54 | – |

| Structure (SMILES) | pIC50 (B1 bradykinin receptor [1]) | pKi (B1 bradykinin receptor [2]) |
| --- | --- | --- |
| C[C@@H](NC(=O)c1n[nH]c(NC(=O)c2ccccc2Cl)c1Br)c1ccccc1 | 6.68 | – |
| O=C(Nc1c(Br)c(C(=O)NCCC2CCN(c3ccncc3)CC2)nn1Cc1ccccc1)c1ccccc1Cl | 7.15 | – |
| O=C(Nc1c(Br)c(C(=O)N[C@@H]2N=C(c3ccccc3)c3ccccc3NC2=O)nn1-c1ccccc1)c1ccccc1Cl | < 5.00 | – |
| O=C(Nc1c(Br)c(C(=O)NCCC2CCN(c3ccncc3)CC2)nn1-c1ccccc1)c1ccccc1Cl | 8.46 | – |
| O=C(Nc1[nH]nc(C(=O)NC2N=C(c3ccccc3)c3ccccc3NC2=O)c1Br)c1ccccc1 (configuration not stated) | 7.31 | – |
| O=C(NCCC1CCN(c2ccncc2)CC1)c1cc(NC(=O)c2ccccc2Cl)[nH]n1 | 6.70 | – |
| O=C(Nc1[nH]nc(C(=O)NCCC2CCN(c3ccncc3)CC2)c1Cl)c1ccccc1Cl | 8.41 | – |
| O=C(Nc1[nH]nc(C(=O)Nc2ccc(CCC3=NCCN3)cc2)c1Br)c1ccccc1Cl | 10.12 | – |
| C[C@@H](NC(=O)c1n[nH]c(NC(=O)c2ccccc2Cl)c1Br)C(=O)N1CCCCC1 | 7.80 | – |
| O=C(Nc1[nH]nc(C(=O)Nc2ccccc2)c1Cl)c1ccccc1Cl | 6.15 | – |
| O=C(Nc1[nH]nc(C(=O)NC2N=C(c3ccccc3)c3ccccc3NC2=O)c1Br)c1ccccc1F (configuration not stated) | 8.00 | – |
| O=C(Nc1[nH]nc(C(=O)Nc2ccncc2)c1Br)c1ccccc1Cl | 6.25 | – |
| CC(C)C(=O)Nc1[nH]nc(C(=O)NC2N=C(c3ccccc3)c3ccccc3NC2=O)c1Br (configuration not stated) | 6.19 | – |
| O=C(Nc1[nH]nc(C(=O)Nc2ccccc2)c1Br)c1ccccc1Cl | 6.28 | 6.70 |
| CN1CCC(N2CCC(CCNC(=O)c3n[nH]c(NC(=O)c4ccccc4Cl)c3Br)CC2)CC1 | 8.74 | – |
| Cc1nc(-c2n[nH]c(NC(=O)c3ccccc3Cl)c2Br)cs1 | 5.96 | – |
| O=C(Nc1[nH]nc(C(=O)NCCC2CCN(c3ccncc3)CC2)c1Br)c1ccccc1Cl | 8.52 | – |
| O=C(Nc1[nH]nc(C(=O)N[C@@H]2CN3CCC2CC3)c1Br)c1ccccc1Cl | 7.22 | – |
| O=C(Nc1[nH]nc(C(=O)NC2N=C(c3ccccc3)c3ccccc3NC2=O)c1Br)c1ccccc1Cl (racemic) | 8.28 | – |
